{"source": "patent US6265423A", "about": "“Aromatic polycyclic retinoid-type derivatives, method for preparing same, and use thereof for making pharmaceutical and cosmetic compositions” (priority 1996, dated 2001)", "key": {"RARα-ERcassette": {"test_system": "RARα-ERcassette", "experiment": "Transactivation, chimerical receptor RARα-ERcassette (HeLa)", "assay_type": "cell-based", "conditions": "TTNPB 10^-8 M = 100", "outline": "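First, HeLa cells receive the chimeric RAR construct, whose native DNA-binding domain is exchanged for the oestrogen receptor's, plus an ERE-luciferase reporter and β-galactosidase control, by calcium phosphate co-precipitation. After 24 h, cells are incubated with effectors for 16 h before luciferase measurement.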"}, "[1]": {"test_system": "AP-1, MTLN lineage (MCF-7)", "experiment": "Anti-AP-1 effect, MTLN lineage activated by TPA", "assay_type": "cell-based, human", "outline": "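MCF-7-derived MTLN cells stably carrying a p(TRE)3-tk-Luc reporter, activated with 10^-7 M TPA, run in duplicate. Luciferase inhibition by compounds given as percentage after subtracting basal cell activity, reported as a range from several experiments.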"}, "[2]": {"test_system": "ERE-βGlob-Luc, MELN lineage (MCF-7)", "experiment": "Anti-oestrogenic effect, MELN lineage activated by estradiol", "assay_type": "cell-based, human", "outline": "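MCF-7-derived MELN cells stably carry luciferase driven by chicken vitellogenin A2 ERE and βGlobin promoter; stimulated with 10^-9 M estradiol, run in duplicate. Basal activity is set with 1 μM 4-OH-tamoxifen and subtracted. Effect expressed as percentage.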"}, "T-47D cells": {"test_system": "T-47D cells", "experiment": "Effect on oestrogen-induced proliferation of T-47D cells", "assay_type": "cell-based, human"}, "[3]": {"test_system": "T-47D human mammary cancer cells", "experiment": "MTT test, proliferation of T-47D", "assay_type": "cell-based", "outline": "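After 24 h seeding, cells in MEM with 5% decomplemented FCS at 37° C were exposed to compound at 10^-8 M, 10^-6 M and 10^-4 M. Viability was assessed by MTT reduction to formazan, dissolved in DMSO. Mean optical density is expressed as % of untreated control (100%), in 6 duplicates.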"}, "Gal4-RARα": {"test_system": "Gal4-RARα", "experiment": "Transactivation, chimerical receptor Gal4-RARα (transitory transfection of HeLa)", "assay_type": "cell-based", "conditions": "10^-6 M; 100% = TTNPB 10^-8 M"}}}
{"compound": "C/C(=C/c1ccc2c(c1)C(C)(C)CCC2(C)C)c1ccc(-c2nnn[nH]2)cc1", "note": "[CB92834]", "values": [{"measurement": "RAR-ERcassette RARα transactivation", "setting": "RARα-ERcassette; 10^-6 M", "result": 11, "unit": "%"}, {"measurement": "RAR-ERcassette RARα transactivation", "setting": "RARα-ERcassette; 10^-7 M", "result": 9, "unit": "%"}, {"measurement": "RAR-ERcassette RARα transactivation", "setting": "RARα-ERcassette; 10^-8 M", "result": 0, "unit": "%"}, {"measurement": "inhibition at 1 µM", "setting": "[1]; Homo sapiens, MCF7, 10^-6 M, cells activated by 10^-7 M TPA, range of several experiments", "result": "20 to 23", "unit": "%"}, {"measurement": "inhibition at 0.1 µM", "setting": "[1]; Homo sapiens, MCF7, 10^-7 M, cells activated by 10^-7 M TPA, range of several experiments, read-out: anti-AP-1 effect, inhibition", "result": "4 to 9", "unit": "%"}, {"measurement": "anti-AP-1 effect (in words)", "setting": "[1]; TPA-activated MTLN cells", "result": "anti-AP-1 molecules through RXR"}, {"measurement": "inhibition", "setting": "[2]; Homo sapiens, MCF7, 10^-6 M, cells activated by 10^-9 M estradiol", "result": 0, "unit": "%"}, {"measurement": "anti-oestrogenic effect (in words)", "setting": "[2]; estradiol-activated MELN cells", "result": "inactive"}, {"measurement": "activity at 1 µM", "setting": "T-47D cells; Homo sapiens, T47D, 168 h, 10^-6 M, 100% = E2 10^-9 M, 7 days, read-out: growth of T-47D cells", "result": 94, "unit": "%"}, {"measurement": "effect on oestrogen-induced growth, T-47D (in words)", "setting": "T-47D cells; estradiol 10^-9 M", "result": "inactive on the oestrogen-induced growth"}, {"measurement": "activity at 100 µM", "setting": "[3]; Homo sapiens, T47D, T-47D, 10^-4 M, 72 h, control = 100%, read-out: level of proliferation", "result": 3.5, "unit": "%"}, {"measurement": "activity at 1 µM", "setting": "[3]; Homo sapiens, T47D, T-47D, 10^-6 M, 72 h, control = 100%, read-out: level of proliferation", "result": 83.2, "unit": "%"}, {"measurement": "activity at 0.01 µM", "setting": "[3]; Homo sapiens, T47D, T-47D, 10^-8 M, 72 h, control = 100%, read-out: level of proliferation", "result": 86.5, "unit": "%"}, {"measurement": "effect on cellular increase, T-47D (in words)", "setting": "[3]; MTT test", "result": "strongly inhibitive activity on the cellular increase of the two lineages"}, {"measurement": "GAL4-RAR RARα transactivation", "setting": "Gal4-RARα", "result": 8, "unit": "%"}]}
